Among the test systems are HL-60; CCRF-CEM; A549; SF-268; COLO 205; UACC-257; HCT-116; KM12; SF-295; NCI-H226; MOLT-4; RPMI-8226; K562; SNB-19; OVCAR-5; HCT-15; HOP-62; UO-31; SK-OV-3; HCC 2998.
Holding throughout (assay): growth of human tumour cells (NCI), 48 h

The text below walks through data of ChEMBL document CHEMBL1201862, “PubChem BioAssay data set” (2004).

Structures are written as SMILES.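 Method: 48-hour compound exposure of cells in 96-well plates, five concentrations, linear interpolation of endpoints. The concentration for 50% growth inhibition is given as GI50.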 Calls of active or inactive are those of the source. No stated cut-off is given here; in the data, active = GI50 up to about 1.1 µM and inactive = higher.

As for `CCOC(=O)c1c(N=C(S)Nc2ccccc2)sc2c1CCN(C)C2`, the GI50 in the experiment with HL-60, in the experiment with CCRF-CEM, in the experiment on A549, in the experiment on SF-268, with COLO 205 and in the experiment with UACC-257 was > 100 µM (inactive) in each case. Further, the GI50 in the experiment on HCT-116, in the experiment on KM12, in the experiment with SF-295, in the experiment on NCI-H226, in the experiment on MOLT-4 and with RPMI-8226 was > 100 µM (inactive) each time. Moreover, the GI50 in the experiment with K562 is > 100 µM (inactive); in the experiment with SNB-19, > 100 µM (inactive); in the experiment on OVCAR-5, > 100 µM (inactive); in the experiment on HCT-15, over 100 µM; in the experiment on HOP-62, > 100 µM (inactive); with UO-31, > 100 µM (inactive).
As to `Cc1ccc(S(=O)(=O)N2c3ccccc3[C@H]3CCc4c([nH]c5ccccc45)[C@H]32)cc1`, the GI50 is > 100 µM (inactive) in the experiment with SK-OV-3; 70 µM (inactive) in the experiment on CCRF-CEM; > 100 µM (inactive) in the experiment with A549; > 100 µM (inactive) with SF-268; > 100 µM (inactive) in the experiment on COLO 205; > 100 µM (inactive) in the experiment with UACC-257. Moreover, the GI50 in the experiment with HCT-116 was > 100 µM (inactive); in the experiment on KM12, 17.9 µM (inactive); in the experiment on SF-295, > 100 µM (inactive); in the experiment with NCI-H226, 15.3 µM (inactive); in the experiment on MOLT-4, 66.1 µM (inactive); in the experiment with RPMI-8226, 29.2 µM (inactive). In addition, the GI50 with K562 was 23.4 µM (inactive); with SNB-19 it was > 100 µM (inactive); with OVCAR-5, > 100 µM (inactive); in the experiment on HCC 2998 it was > 100 µM (inactive); with HOP-62 it was 84.9 µM (inactive); in the experiment with UO-31, > 100 µM (inactive).
Take `CCOC(=O)c1cc(C2CCN(Cc3ccccc3)C2=S)c(C(=O)C=[N+]=[N-])[nH]1` (stereo not drawn): the GI50 in the experiment on SK-OV-3 was > 100 µM (inactive); in the experiment with CCRF-CEM, 13.4 µM (inactive); with A549 it was 26.4 µM (inactive); in the experiment with SF-268 it was 25.8 µM (inactive); in the experiment with COLO 205, 33.8 µM (inactive); in the experiment with UACC-257 it was 25.8 µM (inactive). The GI50 is 40.5 µM (inactive) with HCT-116; 55.5 µM (inactive) in the experiment with KM12; 20.5 µM (inactive) in the experiment on SF-295; 30.4 µM (inactive) in the experiment with MOLT-4; 45.9 µM (inactive) with RPMI-8226; 64.6 µM (inactive) in the experiment on K562. In addition, the GI50 with SNB-19 is 28.8 µM (inactive); in the experiment with OVCAR-5 it was 30.3 µM (inactive); with HCC 2998, 49.7 µM (inactive); with HCT-15 it was 19.5 µM; in the experiment with HOP-62, 51.4 µM (inactive); in the experiment with UO-31 it was 18.8 µM (inactive).
Take `CC1CC/C(=C\c2ccc(Cl)cc2)C(=O)/C1=C\c1ccc(Cl)cc1` (stereo not drawn): the GI50 in the experiment with SK-OV-3 was > 100 µM (inactive); in the experiment on CCRF-CEM it was 41.9 µM (inactive); in the experiment on A549, 35.3 µM (inactive); with SF-268, 34.2 µM (inactive); in the experiment with COLO 205 it was 32.1 µM (inactive); in the experiment with UACC-257, 42.7 µM (inactive). Further, the GI50 in the experiment with HCT-116 is 32.6 µM (inactive); in the experiment with KM12, 18.7 µM (inactive); in the experiment on K562, 41 µM (inactive); with SNB-19, > 10 µM (inactive); in the experiment on OVCAR-5 it was 21.6 µM (inactive); with HCT-15, 22.4 µM. Moreover, the values for the GI50 in the experiment with HOP-62 and in the experiment with UO-31 were 25.6 µM (inactive) and 36.4 µM (inactive), respectively.
